Experimental data taken from US8192717B2, “Composition for diagnosing amyloid-related diseases” (Nagasaki University, priority 2004, dated 2012).

Key:
[1] = biological target: T1, Aβ(1-40) aggregates (Homo sapiens, UniProt P05067); test: Saturation experiment of [125I] compound 11 with Scatchard analysis, Aβ(1-40) aggregates; assay type: binding; conditions: read-out: dissociation equilibrium constant (Kd value)
T1 construct: The amyloid β protein (Human, 1-40) [HCl form]; purchased Peptide Institute, Inc
T1 sequence (P05067 672-711 limits assumed): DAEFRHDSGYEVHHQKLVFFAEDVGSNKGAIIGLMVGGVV
Protocol: (§1) Aβ aggregates was dissolved in a buffer (pH 7.4) that contained 10 mM sodium phosphate and 1 mM EDTA, resulting in a concentration of 0.5 mg/ml. Thereafter, the obtained solution was incubated at 37° C. for 36 to 42 hours. A binding experiment was carried out using 12×75 mm borosilicate glass tubes. […] The obtained mixture was left at room temperature for 3 hours. Non-specific bond was calculated using nonradioactive compound 11 (1 μM). […] The radioactivity of a substance remaining in the filter used in filtration was measured with a γ counter. With regard to [^125I] compound 11, the Kd value thereof was calculated by the Scatchard analysis. In addition, using [^125I] compound 11 as a radioactive ligand, an inhibition experiment was carried out by the following method using the Aβ(1-40) aggregates and the Aβ(1-42) aggregates. […] The obtained mixture was left at room temperature for 3 hours. Non-specific bond was calculated using nonradioactive compound 11 (1 μM). The 50% inhibitory concentration was calculated using GraphPad Prism (GraphPad Software), and the inhibition constant (Ki value) was calculated according to the formula of Cheng-Prusoff, Ki=IC50/(1+[L]/Kd). In this formula, [L] represents the concentration of [^125I] compound 11, and Kd represents the dissociation constant of [^125I] compound 11 to the Aβ(1-40) aggregates and the Aβ(1-42) aggregates.

[2] = biological target: T2, Aβ(1-42) aggregates (Homo sapiens, UniProt P05067); test: Saturation experiment of [125I] compound 11 with Scatchard analysis, Aβ(1-42) aggregates; assay type: binding; conditions: read-out: dissociation equilibrium constant (Kd value)
T2 construct: the amyloid β protein (Human, 1-42) [TFA form]; purchased Peptide Institute, Inc
T2 sequence (P05067 672-713 limits assumed): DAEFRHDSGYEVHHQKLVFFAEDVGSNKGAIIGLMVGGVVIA
Protocol: as §1

[3] = biological target: T1, Aβ(1-40) aggregates; test: Inhibition experiment using [125I] compound 11 as radioactive ligand, Aβ(1-40) aggregates; assay type: binding; conditions: radioligand [125I] compound 11; Cheng-Prusoff; read-out: Inhibition constant (Ki, nM) Aβ(1-40)
Protocol: as §1

[4] = biological target: T1, Aβ(1-40) aggregates; test: In vitro binding of [125I]-labelled compounds to Aβ aggregates (filtration, radioactivity on filter); conditions: [125I]-labelled compound; radioactivity remaining on filter in presence vs absence of Aβ aggregates
Protocol: as §1

[5] = system: senile plaque amyloid, cerebrovascular amyloid and neurofibrillary degeneration in brain tissues of patient with Alzheimer's disease; test: Binding experiment using brain tissues of patient with Alzheimer's disease (fluorescence microscopy of sections); set-up: species or system human; conditions: 100 nM, room temperature, 10 minutes; temporal lobe sections
Protocol: Tissues at the temporal lobe site of the brain of a patient with Alzheimer's disease were fixed with formalin, and were then embedded in paraffin. A section with a thickness of 5 μm was prepared from the paraffin block, and the paraffin was then removed by an ordinary treatment with xylene and ethanol (Lippa, C. F., Nee, L. E., Mori, H & George-Hyslop, P. (1998) The Lancet 352:1117-1118). As the final stage, neutralization was carried out with a phosphate buffer. Thereafter, compounds 10, 11, 19, and 20 were reacted in a concentration of 100 nM at room temperature for 10 minutes. Thereafter, the reaction product was washed with a phosphate buffer three times, and then with 50% ethanol three time, so as to terminate the reaction. Thereafter, the resultant was dehydrated by treatments with alcohol and xylene, followed by embedding with Entellan(R) new. The bond of the above compound was confirmed by image observation with a CCD camera (M-3204C) included with a fluorescence microscope (Olympus BX50).

[6] = biological target: T2, Aβ(1-42) aggregates; test: Inhibition experiment using [125I] compound 11 as radioactive ligand, Aβ(1-42) aggregates; assay type: binding; conditions: radioligand [125I] compound 11; Cheng-Prusoff; read-out: Inhibition constant (Ki, nM) Aβ(1-42)
Protocol: as §1

Work on `CN(C)c1ccc(-c2cc(=O)c3cc(I)ccc3o2)cc1` [compound 11, 6-iodo-4′-dimethylaminoflavone] yielded a Kd [1] of 12.3 ± 2.3 nM, a Kd [2] of 17.6 ± 5.7 nM and a Ki [3] of 13.2 ± 0.2 nM. The “bindability to the Aβ aggregates” value [4] was “high bindability”, the “bindability to senile plaque having a neurodegenerative projection and to neurofibrillary degeneration” value [5] was “has bindability” and the “binding to cerebrovascular amyloid” value [5] was “specifically binds to cerebrovascular amyloid”. For the same molecule, the “binding to senile plaque” value [5] was “specifically binds to senile plaque” and the Ki [6] was 15.6 ± 2.4 nM.
